Experimental data as given in article PMC11942360, “Intratracheal Delivery of a Phospholamban Decoy Peptide Attenuates Cardiac Damage Following Myocardial Infarction” (International Journal of Molecular Sciences, 2025).
Blank lines part the entries; values can stand above or below the substance they belong to.

Legend:
[1] = system: C57/Bl6 mice, myocardial infarction; assay: Myocardial infarction (LAD ligation) model: histology and heart morphology; type: in vivo; settings: 200 nmoles IT 3 h prior to MI, vs PBS-injected
Procedure: (§1) Figure 2 Delivery of dNP2-SE via IT injection exerts cardio-protective effects upon MI. (A) Experimental scheme. A total of 200 nmol dNP2-SE or PBS was delivered via IT injection to adult (9-week-old) C57/Bl6 mice. MI was induced by LAD ligation 3 h post-injection. Hearts were harvested and analyzed 24 h post-MI. (B) Hearts were sectioned and stained with hematoxylin and eosin (H&E) or Picro Sirius Red. Representative images are shown. The LV chamber area was traced (shown in blue lines) and quantitated. The thickness of the LV free wall was also measured (shown in straight black lines). (C,D) LV chamber area and LV free wall thickness are presented as a graph. n = 6~7 per group; one-way ANOVA; *** p < 0.001. Bar represents the mean ±SEM. […] Bar represents the mean ±SEM. (F) TUNEL staining of the heart sections was performed using the DeadEnd Fluorometric TUNEL System. Apoptotic DNA fragmentation was labeled with fluorescein-12-dUTP (green). Nuclei were stained with Hoechst 33342 (blue). Representative images are shown. […] Bar represents the mean ± SEM.
(§2) The left side of the chest was shaved, and an intubation tube was inserted into the trachea. An incision was made in the 4th intercostal space, and the muscles were separated with scissors. The pericardium was gently removed. MI was induced by ligation of the left anterior descending (LAD) artery using a 7–0 black silk suture. The lower region of the artery turned pale immediately after ligation. The chest was sutured with 4–0 black silk. The same surgical procedure, without LAD ligation, was performed for the sham operation.
Harvested heart tissues were fixed in 4% PFA for 24 h at 4 °C and then washed with tap water. After discarding the tap water, the tissues were sequentially incubated in 70%, 80%, 95%, and 100% ethanol for 1 h each to dehydrate. Following the ethanol incubations, the tissues were incubated in xylene for 1 h and 20 min and then embedded in paraffin at 60 °C for 4 h. Paraffin-embedded tissues were sliced into 8 µm sections. After rehydration, the sections were used for histology as follows:
H&E staining: The sections were incubated in hematoxylin (26041-06, Electron Microscopy Science, Hatfield, PA, USA) for 30 s to stain the nuclei, followed by a 10 min wash in running tap water to remove excess stain. Subsequently, the sections were incubated in eosin (EOYA-05-OT-1L, Biognost, Zagreb, Croatia) for 2 min to stain the cytoplasm.
Picro Sirius staining: The sections were incubated for 60 min in Picro Sirius Red solution (ab150681, Abcam, Waltham, MA, USA), rinsed twice with 0.5% acetic acid, and then rinsed with absolute alcohol. H&E and Picro Sirius-stained slides were observed using a slide scanner (Aperio CS2, Leica, Germany).

[2] = molecular target: T1, PPP1R3A (Mus musculus, UniProt Q99MR9); assay: Streptavidin precipitation of biotin-dNP2-SE from heart lysates, blot for PPP1R3A; type: binding, mice; settings: biotin-dNP2-SE delivered to the normal heart via IT injection
T1 construct: from tissue; host or cells: normal mouse heart after IT injection of biotin-dNP2-SE
T1 sequence (Q99MR9 1-1089): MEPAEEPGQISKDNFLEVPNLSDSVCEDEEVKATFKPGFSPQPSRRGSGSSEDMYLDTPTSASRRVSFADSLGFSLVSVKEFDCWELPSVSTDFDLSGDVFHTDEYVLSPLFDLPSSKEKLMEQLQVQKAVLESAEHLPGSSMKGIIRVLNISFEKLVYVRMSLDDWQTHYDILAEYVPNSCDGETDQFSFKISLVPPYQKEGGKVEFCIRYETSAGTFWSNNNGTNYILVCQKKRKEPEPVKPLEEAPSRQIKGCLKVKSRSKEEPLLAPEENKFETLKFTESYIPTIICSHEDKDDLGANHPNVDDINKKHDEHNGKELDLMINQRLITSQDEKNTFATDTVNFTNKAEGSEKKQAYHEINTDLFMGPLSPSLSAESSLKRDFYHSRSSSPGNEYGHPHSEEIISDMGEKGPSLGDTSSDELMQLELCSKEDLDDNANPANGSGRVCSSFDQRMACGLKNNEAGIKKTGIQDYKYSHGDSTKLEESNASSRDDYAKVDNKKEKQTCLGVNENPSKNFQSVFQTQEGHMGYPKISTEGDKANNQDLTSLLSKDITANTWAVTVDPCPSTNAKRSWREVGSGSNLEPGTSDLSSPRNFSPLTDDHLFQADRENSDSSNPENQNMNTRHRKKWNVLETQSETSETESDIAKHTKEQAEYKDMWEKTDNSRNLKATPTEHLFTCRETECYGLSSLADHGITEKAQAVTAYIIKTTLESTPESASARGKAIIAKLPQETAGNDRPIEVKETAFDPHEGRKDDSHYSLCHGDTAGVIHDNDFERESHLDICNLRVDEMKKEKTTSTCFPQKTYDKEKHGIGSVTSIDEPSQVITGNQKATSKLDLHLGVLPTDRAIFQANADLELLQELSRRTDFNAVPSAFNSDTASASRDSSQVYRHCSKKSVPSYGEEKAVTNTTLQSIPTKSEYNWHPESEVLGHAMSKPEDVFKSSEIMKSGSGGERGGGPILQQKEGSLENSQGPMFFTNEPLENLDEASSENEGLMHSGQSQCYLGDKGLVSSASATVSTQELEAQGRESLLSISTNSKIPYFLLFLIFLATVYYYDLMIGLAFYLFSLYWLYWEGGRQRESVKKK
Source text: (§3) Figure 5 Inhibitory mechanism of dNP2-SE on the PP1cα-PPP1R3A-PLN complex. (A) Protein lysates shown in Figure 4 were subjected to immunoprecipitation with anti-PP1cα antibodies and blotted with antibodies against PLN, PPP1R3A, and PP1cα (upper three rows). Inputs were also blotted with antibodies against PLN, PPP1R3A, and PP1cα (lower three rows). (B) Biotin-dNP2-SE was delivered to the normal heart via IT injection. Heart lysates were obtained, precipitated with streptavidin, and blotted with PP1cα, PPP1R3A, and PLN. Inputs were also blotted.

[3] = system: C57/Bl6 mice, myocardial infarction; assay: Myocardial infarction model: TUNEL staining of heart sections; type: in vivo; settings: 200 nmoles IT 3 h prior to MI; 24 h post-MI; LV free wall; n = 3~4 per group
Procedure: as §1, with “± SEM. […]” for “± SEM.”
The TUNEL assay was performed following the manufacturer’s instructions (DeadEnd Fluorometric TUNEL System, Promega, […], USA). […] Apoptotic signals and nuclear signals in the LV region were counted using cellSens TruAI 4.3 software (OLYMPUS, Tokyo, Japan), and the percentage of TUNEL-positive cells was calculated.

[4] = system: SERCA2a, α-SMA, phospho-PLN (S16), PP1cα, PPP1R3A in heart; assay: Myocardial infarction model: western blotting of heart lysates; type: in vivo, mice; settings: 200 nmoles IT 3 h prior to MI, 24 h post-MI, western blot, n = 3 per group
Source text: Figure 4 Delivery of dNP2-SE via IT injection prevents molecular abnormalities upon MI. (A) Protein lysates obtained from the hearts shown in Figure 2 and Figure 3 were subjected to western blotting. Antibodies against SERCA2a, α-SMA, phospho-PLN, PLN, PP1cα, and PPP1R3A were used. β-actin was used as a loading control. (B) The ratio of phosphorylated PLN over PLN is shown. […] Bar represents the mean ± SEM.

[5] = molecular target: T2, PP1cα-PPP1R3A-PLN complex (Mus musculus, UniProt P62137); assay: Immunoprecipitation of heart lysates with anti-PP1cα antibodies; settings: heart lysates of MI mice given 200 nmoles IT, IP with anti-PP1cα
T2 construct: from tissue; host or cells: mouse heart (C57BL/6, after MI, PBS- or dNP2-SE-injected)
Source text: as §3
Immunoprecipitation was performed by adding 1 µg of the corresponding antibody to 1 mg of lysate. The mixture was gently inverted on a rotator overnight at 4 °C. After the primary antibody incubation, 30 µL of protein A-conjugated magnetic beads (88845, Thermo Fisher, Waltham, MA, USA) were added and incubated for 1 h to bind with the antibody. To isolate the protein–antibody–bead complex from the lysate, the mixture was centrifuged at 3000 rpm for 3 min at 4 °C and washed 4 times with lysis buffer. As a control for the precipitates, 2% of the initial protein amount used for pulldown was prepared as input. The collected complexes and inputs were used for western blots.

[6] = molecular target: T3, PP1cα (Mus musculus, UniProt P62137); assay: Streptavidin precipitation of biotin-dNP2-SE from heart lysates, blot for PP1cα; type: binding, mice; settings: biotin-dNP2-SE delivered to the normal heart via IT injection
T3 construct: from tissue; host or cells: normal mouse heart after IT injection of biotin-dNP2-SE
Source text: as §3

[7] = system: C57/Bl6 mice, myocardial infarction; assay: Myocardial infarction model: hemodynamic analysis (PV loops); type: in vivo; settings: 200 nmoles IT 3 h prior to MI, 24 h post-MI, n = 5~8 per group
Procedure: Figure 3 Delivery of dNP2-SE via IT injection preserves cardiac contractility upon MI. Hemodynamic analyses were performed 24 h post-MI to measure cardiac contractility. (A) Representative PV loops are shown. (B) End-systolic pressure–volume relationship (ESPVR), dp/dt max (mmHg), and dp/dt min (mmHg) are shown. […] Bar represents the mean ± SEM.
as §2
An incision was made in the abdominal wall to expose the abdominal cavity. The diaphragm was carefully separated from the ribs to avoid bleeding during the incision procedures. The xiphoid process was lifted, and the diaphragm was pulled down and fixed to secure the site. The pericardium was then removed. A small puncture was made in the left ventricle using an insulin syringe, and a probe was inserted through the puncture (AD instruments, Dunedin, New Zealand). Data analysis was performed using LabChart 8 (AD instruments, New Zealand).

[8] = cited from earlier work
Source text: In this study, we aimed to evaluate the feasibility of delivering a naked peptide fused with a cell-penetrating peptide (CPP) to the heart via the lung-to-heart route without encapsulation in NPs. CPPs, which are the peptide sequences enriched in arginine and lysine residues, facilitate the translocation of hydrophilic macromolecules such as proteins and peptides across cellular membranes. The specific CPP used in this study is a tandem repeat of NP2 (dNP2), a sequence derived from the human novel LZAP-binding protein (NLBP). Compared to TAT, the most widely used CPP originated fro ...

[9] = 24 h post-MI, n = 6~7 per group

T2 sequence (P62137 whole entry, one chain of several): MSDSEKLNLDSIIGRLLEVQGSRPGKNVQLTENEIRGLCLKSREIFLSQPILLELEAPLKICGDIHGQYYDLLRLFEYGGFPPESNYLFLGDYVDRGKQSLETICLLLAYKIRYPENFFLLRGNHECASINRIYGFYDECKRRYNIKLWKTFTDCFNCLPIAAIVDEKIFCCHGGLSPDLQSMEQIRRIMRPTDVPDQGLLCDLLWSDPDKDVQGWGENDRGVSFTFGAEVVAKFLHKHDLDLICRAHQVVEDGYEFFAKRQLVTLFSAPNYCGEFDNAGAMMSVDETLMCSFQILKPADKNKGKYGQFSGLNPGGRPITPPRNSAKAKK
T3 sequence (P62137 whole entry): as the sequence (P62137 whole entry, one chain of several) above

Interaction with PPP1R3A (streptavidin precipitation, western blot) [2]: only weakly interacts
Interactions between PP1cα and PPP1R3A (co-immunoprecipitation) [5]: not altered
Physical interactions between PP1cα and PLN (co-immunoprecipitation) ([5]; vs PBS-injected): completely abolished
Binding to PP1cα (streptavidin precipitation, western blot) [6]: strongly binds
Substance: Ac-KIKKVKKKGRKGSKIKKVKKKGRKGRAETIEMPQ-NH2 [dNP2-SE]
Heart weight-to-body weight ratio under MI [1, 9]: normalized
LV chamber area under MI [1, 9]: remained normal
LV free wall thickness under MI [1, 9]: significantly preserved
Collagen deposition (Picro Sirius staining) under MI ([1]; hearts 24 h post-MI): markedly reduced
Increase in apoptotic cell populations (TUNEL-positive cells) under MI [3]: effectively prevented
Phosphorylation of PLN at S16 (p-PLN) in heart under MI ([4]; p-PLN/PLN): fully preserved
Expression level of PP1cα in heart [4]: remained unchanged
MI-induced increase in PPP1R3A expression in heart [4]: prevented
MI-induced increase of α-smooth muscle actin (α-SMA) in heart [4]: attenuated
MI-induced reduction of SERCA2a expression in heart [4]: attenuated
PV loop pattern under MI [7]: indistinguishable from that of sham-operated hearts
Ejection fraction (EF) under MI ([7]; vs PBS-injected): significantly ameliorated
End-systolic pressure–volume ratio (ESPVR) under MI ([7]; vs PBS-injected): significantly normalized
LV end-diastolic volume (Vmax) under MI ([7]; vs PBS-injected): significantly ameliorated
LV end-systolic volume (Vmin) under MI ([7]; vs PBS-injected): significantly ameliorated
dP/dt max under MI ([7]; vs PBS-injected): significantly normalized
dP/dt min under MI ([7]; vs PBS-injected): significantly normalized

Substance: KIKKVKKKGRKGSKIKKVKKKGRKG [dNP2]
Toxicity compared to TAT [8]: significantly lower toxicity than TAT
